Data from the NIST ThermoML archive (doi:10.1021/je700591h).
± gives the expanded uncertainty stated by the source.

Details: Crystal

Q: With `C[S+](C)[O-]` [dimethyl sulfoxide] as the molecule, how does the Normal melting temperature read?
A: 18.51 ± 6 °C
